Assay results from US12384751B2, “Allosteric activators of the ALPHA1A-adrenergic receptor” (The Cleveland Clinic Foundation, priority 2019, dated 2025).
“Also recorded” adds a separate entry of the source.

Key:
α1-ARs = conditions: read-out: calculated Ki; cited from earlier work
α1A-AR [1] = target: T1, α1A-AR (Homo sapiens, UniProt P35348); assay: cAMP assay at α1A-AR; assay type: cell-based; set-up: expressed in transfected cells; host or cells: Rat-1 fibroblast cells; conditions: for effect on epinephrine-mediated cAMP response at the α1A-AR: 10^−5M to 10^−7M of compound; for effect on norepinephrine-mediated cAMP response at the α1A-AR: 10^−5M to 10^−9M of compound
T1 sequence (P35348 1-466): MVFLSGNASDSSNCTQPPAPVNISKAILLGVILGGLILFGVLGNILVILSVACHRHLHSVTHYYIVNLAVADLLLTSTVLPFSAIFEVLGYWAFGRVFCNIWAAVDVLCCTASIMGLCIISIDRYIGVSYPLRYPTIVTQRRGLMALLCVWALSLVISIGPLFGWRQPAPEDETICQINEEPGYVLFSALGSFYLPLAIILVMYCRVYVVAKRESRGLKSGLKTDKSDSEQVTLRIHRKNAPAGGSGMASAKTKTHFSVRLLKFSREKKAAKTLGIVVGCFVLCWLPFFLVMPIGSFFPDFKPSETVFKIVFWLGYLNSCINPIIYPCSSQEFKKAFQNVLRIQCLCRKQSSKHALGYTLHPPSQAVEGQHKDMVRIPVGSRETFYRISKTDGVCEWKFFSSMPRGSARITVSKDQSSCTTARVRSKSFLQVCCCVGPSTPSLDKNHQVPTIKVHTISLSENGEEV
Description: cAMP assay: Cells expressing a single α1-adrenergic receptor subtype are washed and re-plated into 24-well plates in DMEM media without serum at approximately 2.4×10^4 cells/well. Cells are allowed to rest till the next day in a CO2 incubator at 37° C. The cells are washed twice with DMEM (no serum), then 1 ml of DMEM is added to each well. Cells are pre-incubated for 45 mins-1 hour at 37° C. in a CO2 incubator with 10 uM propranolol, followed by 100 uM IBMX for 30 minutes. Final DMSO concentration is at 0.05%. Norepinephrine or epinephrine is added in a dose response (1 dose per well) in addition to one of the Compounds 1-10 at one concentration (i.e. 10^−5M). Cells are incubated for another 30 mins at 37° C. in a CO2 incubator. The reaction is concluded by aspirating the media and adding 0.1M HCL. The mixture is incubated for 20 mins at room temperature. The cells are scraped and suspended until homogenous. The mixture is centrifuged at 1000 g for 10 mins and the supernatant assayed the same day according to a manufacturer's cAMP kit (Cayman Select Cyclic AMP EIA kit #501040).

α1A-AR [2] = target: T1, α1A-AR; assay: Total inositol phosphate assay at α1A-AR; assay type: cell-based; set-up: expressed in transfected cells; host or cells: Rat-1 fibroblast cells; conditions: for stimulation of inositol phosphate / agonist activity by the compound by itself: compound alone
Description: Total Inositol Phosphate assay: Cells expressing a single α1-adrenergic receptor subtypes are washed and re-plated into 6-well plates containing DMEM media at approximately 5×10^5 cells/well. Cells are allowed to rest till the next day in a CO2 incubator at 37° C. The cells are washed twice with DMEM (no serum), then 2 ml of DMEM is added to each well. 2 ul of ^3H-inositol (at 1 uCi/mL, Perkin-Elmer NET 114 005MC) and 10 mM LiCl is added to each well. The cells are incubated for 1 hour at 37° C. in a CO2 incubator. […] The cells are incubated again for 1 hour at 37° C. in a CO2 incubator. The media is aspirated and 1 mL of ice-cold 0.4M perchloric acid is added. The cells are scraped, transferred to a vial, then 1 mL 0.72M KOH/0.6M KHCO3 is added, the tube vortexed and the contents centrifuged at 2000 rpm for 10 mins. The supernatant is removed and applied to BioRad polyprep columns packed with 1 mL of AG1-X8 resin (BioRad AG1-X8 resin 100-200 mesh #140-1444) in 0.1M formic acid in a holding tray which is over a plastic catch tray. The supernatant is allowed to naturally drip through the column then washed with 8 ml of 0.1M formic acid (2 ml at a time). The columns are transferred via the holding tray to a box of 20 ml scintillation vials so that the columns drip directly into the vials. Total inositol phosphates are eluted off the column with 2 ml of 0.1M formic acid/1M ammonium formate. The columns are eluted a second time into a new scintillation vial with another 2 ml of 0.1M formic acid/1M ammonium formate. 18 ml of Ecoscint A is added to each scintillation vial and vortexed. The vials are allowed to dark adapt overnight at room temperature to reduce autofluorescence. The vials are counted in a scintillation counter on the tritium channel and the cpms from the first and second fractions eluted off the columns are added together.

α1A-AR [3] = target: T1, α1A-AR; assay: Competition binding with [125I]HEAT at α1A-AR (Rat-1 fibroblast membranes); set-up: expressed in transfected cells; host or cells: Rat-1 fibroblast cells
Description: Competition binding assays: […] Assays were performed in duplicate in HEM buffer, in a total assay volume of 1000 μl. […] The above conditions will convert all the conformations of the receptor into a single low affinity site. To show both high and low affinity sites of the receptor (typically seen with GPCR agonists), the GTP is removed from the binding buffer. Nonspecific binding was determined experimentally in the presence of 10^−4 M phentolamine. Unbound radioactivity was separated from membrane-bound radioactivity by filtration through Whatman GF/C filter paper. Filters are washed five times with 5 ml of cold HEM buffer containing 0.5 mMGTP (if added to the binding buffer but not if it was not added to the binding buffer). Bound radioactivity remaining on the filters was counted on an ICN gamma counter operating at 79.8% efficiency. Data are analyzed using Graphpad Prism.

α1A-AR [4] = target: T1, α1A-AR; assay: Effect of compound on binding affinity of norepinephrine, epinephrine or other ligands at α1A-AR; set-up: expressed in transfected cells; host or cells: Rat-1 fibroblast cells; conditions: for effect on binding affinity of epinephrine at the α1A-AR: 10^−5M (highest dose tested); for effect on binding affinity of norepinephrine at the α1A-AR: fixed dose of compound, 10^−5M to 10^−9M
Description: Competition binding assays: These compounds were characterized for their ligand binding properties at the α1-AR subtypes. The binding affinities of Compounds 1-10 were determined in a series of competition-binding experiments with the α1-AR-selective antagonist [^125I]HEAT as the radioligand. Assays were performed in duplicate in HEM buffer, in a total assay volume of 1000 μl. Radioligand binding assays are composed of 5 ug of membranes, harvested from Rat-1 fibroblast cells expressing only one of the alpha1-AR subtypes, HEM buffer containing GTP (composed of 20 mM HEPES, pH 7.4, 1.4 mM EGTA, 12.5 mM MgCl2, pH to 7.4), 0.5 mM GTP, 35-80 pM^125I-HEAT, and various doses of norepinephrine or epinephrine and incubated with shaking at 25° C. for 1-2 hours. The above conditions will convert all the conformations of the receptor into a single low affinity site. To show both high and low affinity sites of the receptor (typically seen with GPCR agonists), the GTP is removed from the binding buffer. Nonspecific binding was determined experimentally in the presence of 10^−4 M phentolamine. Unbound radioactivity was separated from membrane-bound radioactivity by filtration through Whatman GF/C filter paper. Filters are washed five times with 5 ml of cold HEM buffer containing 0.5 mMGTP (if added to the binding buffer but not if it was not added to the binding buffer). Bound radioactivity remaining on the filters was counted on an ICN gamma counter operating at 79.8% efficiency. Data are analyzed using Graphpad Prism.
To determine the effects of compounds 1-10 on the binding affinity of norepinephrine or epinephrine, the competition binding assay was repeated as above with one dose of each individual compound (i.e. 10^−5M) added to each concentration point. Data are normalized to the norepinephrine or epinephrine binding curve alone without the addition of the compound to measure its effect on binding.

Normal mice = conditions: cited from earlier work

PAM activity / PAM type (α1A-AR [1])	binding behaviour against radiolabeled antagonist 125I-HEAT (full inhibition; competitive or allosteric) (α1A-AR [3])	selectivity for the α1A-AR over the α1B-AR and α1D-AR subtypes (α1A-AR [3]) [fold]	effect on binding affinity of epinephrine at the α1A-AR (α1A-AR [4])	effect on binding affinity of epinephrine at the α1A-AR (α1A-AR [4]; listed as Cirazoline)	effect on binding affinity of norepinephrine at the α1A-AR (α1A-AR [4])	Structure (SMILES)	Ki (α1-ARs) [nM]	effect on epinephrine-mediated cAMP response at the α1A-AR (α1A-AR [1])	effect on norepinephrine-mediated cAMP response at the α1A-AR (α1A-AR [1])	effect on epinephrine-mediated inositol phosphate response at the α1A-AR (α1A-AR [2])	effect on norepinephrine-mediated inositol phosphate response at the α1A-AR (α1A-AR [2])	stimulation of inositol phosphate / agonist activity by the compound by itself (α1A-AR [2])	effect on binding affinity of norepinephrine at the α1A-AR (α1A-AR [4]; listed as Cirazoline)	cognition (Normal mice)	neurogenesis (Normal mice)
–	–	–	–	–	–	COc1cc2nc(N3CCN(C(=O)c4ccco4)CC3)nc(N)c2cc1OC [prazosin]	1	–	–	–	–	–	–	–	–
no evidence of PAM activity	competitive not allosteric behavior	100	–	–	–	Cc1c(OCC2=NCCN2)ccc(Cl)c1NS(C)(=O)=O.Cl [RO115-1240]	–	competitive, not PAM behavior; also recorded: shift the curve to the right to lower potency (inhibition)	antagonist at cAMP; also recorded: competitive, not PAM behavior; also recorded: shift the curve to the right to lower potency (inhibition)	competitive/noncompetitive partial agonism, not PAM behavior	competitive/noncompetitive partial agonism, not PAM behavior	weak partial agonist; also recorded: significant IP response on its own	–	–	–
no evidence of PAM activity	–	–	totally inhibit the binding	fully inhibit	totally inhibit the binding	c1ccc(C2CC2)c(OCC2=NCCN2)c1 [cirazoline]	–	competitive, not PAM behavior	competitive, not PAM behavior	competitive/noncompetitive partial agonism, not PAM behavior	competitive/noncompetitive partial agonism, not PAM behavior	full agonist at the IP response; also recorded: strong agonist at the IP response	does not increase the affinity of norepinephrine	increased	increased
